Data from ChEMBL document CHEMBL5724696, “Autophagy assay results for EUbOPEN Chemogenomics Library” (2024).
Several values for one entry are separate records, joined by “and”; a condition that tells them apart may be missing. Equal values may be shown once.

Assays:
Assay type in all cases: functional, Homo sapiens
U2OS [1] = experiment: (§1) Here: values are normalized to the negative (DMSO; defined as 0% autophagy induction) and positive (250nM Torin1; mTOR inhibitor; defined as maximal inducer of autophagy = 100%) control compounds and represented as % of autophagy induction. […] The impact of autophagy induction on cells is complex and depends on the affected target. As such, the magnitude of a phenotype may not be equally mirrored in the %-value of autophagy induction and vice versa. The dynamics of the induction may indicate the mode of activation: e.g. activation via phosphorylation or a signaling cascade may occur fast, while activation via transcription factors may take considerably longer. […] Of note, treatment concentrations may be sub-optimal for specific compounds, leading to false negative annotations.; details: Culturing Media DMEM, 1 % Penicillin/Streptomycin, 10% Fetal bovin serum Add-On: No, Screening Media Control DMEM, Screening Media Samples DMEM
TERT-RPE1 = experiment: as §1; details: Culturing Media DMEM/F12 (1:1), 1 % Penicillin/Streptomycin, 10% Fetal bovin serum Add-On: No, Screening Media Control DMEM/F12 (1:1), Screening Media Samples DMEM/F12 (1:1)
U2OS [2] = experiment: as §1; details: Culturing Media DMEM, 1 % Penicillin/Streptomycin, 10% Fetal bovin serum Add-On: No, Screening Media Control DMEM, Screening Media Samples DMEM; remark: listed apart in the source
[3] = Compound Concentration 0.5 uM, Timepoint 12 hours
[4] = Compound Concentration 0.5 uM, Timepoint 24 hours
[5] = Compound Concentration 0.5 uM, Timepoint 36 hours
[6] = Compound Concentration 0.5 uM, Timepoint 60 hours
[7] = Compound Concentration 2 uM, Timepoint 12 hours
[8] = Compound Concentration 2 uM, Timepoint 24 hours
[9] = Compound Concentration 2 uM, Timepoint 36 hours
[10] = Compound Concentration 2 uM, Timepoint 60 hours
[11] = Compound Concentration 10 uM, Timepoint 12 hours
[12] = Compound Concentration 10 uM, Timepoint 24 hours
[13] = Compound Concentration 10 uM, Timepoint 36 hours
[14] = Compound Concentration 10 uM, Timepoint 60 hours

For `Cl.Clc1cccc(COc2cncc(N3CCNCC3)n2)c1`, the autophagy induction (U2OS [1]; [3]) was 7.085%, the autophagy induction (U2OS [1]; [4]) was -1.5773% and the autophagy induction (U2OS [1]; [5]) was -58.983%. It also gave an autophagy induction (U2OS [1]; [6]) of -0.334%, an autophagy induction (U2OS [1]; [7]) of 2.459% and an autophagy induction (U2OS [1]; [8]) of 2.019%. It also gave an autophagy induction (U2OS [1]; [9]) of -56.8827%, an autophagy induction (U2OS [1]; [10]) of 0.5358% and an autophagy induction (U2OS [1]; [11]) of -3.089%. The autophagy induction (U2OS [1]; [12]) was 5.923%, the autophagy induction (U2OS [1]; [13]) was -56.0685% and the autophagy induction (U2OS [1]; [14]) was -1.858%. The autophagy induction (TERT-RPE1; Compound Concentration 0.5 uM, Timepoint 12 hours, 12 h, 0.5 µM) was -4.107% and -8.741%, the autophagy induction (TERT-RPE1; Compound Concentration 0.5 uM, Timepoint 24 hours, 24 h, 0.5 µM) was -3.275% and -10.2873% and the autophagy induction (TERT-RPE1; Compound Concentration 0.5 uM, Timepoint 36 hours, 36 h, 0.5 µM) was -5.346% and -10.5791%. For the same molecule, the autophagy induction (TERT-RPE1; Compound Concentration 0.5 uM, Timepoint 60 hours, 60 h, 0.5 µM) was -7.219% and -10.0498%, the autophagy induction (TERT-RPE1; Compound Concentration 2 uM, Timepoint 12 hours, 12 h, 2 µM) was 0.7021% and -1.765% and the autophagy induction (TERT-RPE1; Compound Concentration 2 uM, Timepoint 24 hours, 24 h, 2 µM) was 0.6926% and -5.584%. For the same molecule, the autophagy induction (TERT-RPE1; Compound Concentration 2 uM, Timepoint 36 hours, 36 h, 2 µM) was 0.3671% and -11.5088%, the autophagy induction (TERT-RPE1; Compound Concentration 2 uM, Timepoint 60 hours, 60 h, 2 µM) was -2.572% and -13.6901% and the autophagy induction (TERT-RPE1; Compound Concentration 10 uM, Timepoint 12 hours, 12 h, 10 µM) was 10.122% and -0.2214%. For the same molecule, the autophagy induction (TERT-RPE1; Compound Concentration 10 uM, Timepoint 24 hours, 24 h, 10 µM) was 9.832% and 0.1054%, the autophagy induction (TERT-RPE1; Compound Concentration 10 uM, Timepoint 36 hours, 36 h, 10 µM) was 9.982% and -0.986% and the autophagy induction (TERT-RPE1; Compound Concentration 10 uM, Timepoint 60 hours, 60 h, 10 µM) was 11.761% and 2.73%. The autophagy induction (U2OS [2]; [3]) was -8.837%, the autophagy induction (U2OS [2]; [4]) was -13.8803% and the autophagy induction (U2OS [2]; [5]) was -7.736%. For the same molecule, the autophagy induction (U2OS [2]; [6]) was -11.4823%, the autophagy induction (U2OS [2]; [7]) was 2.897% and the autophagy induction (U2OS [2]; [8]) was 5.801%. It also gave an autophagy induction (U2OS [2]; [9]) of -1.494%, an autophagy induction (U2OS [2]; [10]) of -5.088% and an autophagy induction (U2OS [2]; [11]) of 27.4058%. The autophagy induction (U2OS [2]; [12]) was 16.7462%, the autophagy induction (U2OS [2]; [13]) was 7.428% and the autophagy induction (U2OS [2]; [14]) was 3.616%.
